Where a name gives a salt, the structure may show the parent alone.

For the test, the target named is Serine/threonine-protein kinase 33 (Homo sapiens, UniProt Q9BYT3). Kind of test: inhibition of STK33 phosphorylation of MBP – biochemical, luminescence, cell-free, retest, dose response (AID 2821).
Serine/threonine-protein kinase 33, sequence (Q9BYT3 whole entry): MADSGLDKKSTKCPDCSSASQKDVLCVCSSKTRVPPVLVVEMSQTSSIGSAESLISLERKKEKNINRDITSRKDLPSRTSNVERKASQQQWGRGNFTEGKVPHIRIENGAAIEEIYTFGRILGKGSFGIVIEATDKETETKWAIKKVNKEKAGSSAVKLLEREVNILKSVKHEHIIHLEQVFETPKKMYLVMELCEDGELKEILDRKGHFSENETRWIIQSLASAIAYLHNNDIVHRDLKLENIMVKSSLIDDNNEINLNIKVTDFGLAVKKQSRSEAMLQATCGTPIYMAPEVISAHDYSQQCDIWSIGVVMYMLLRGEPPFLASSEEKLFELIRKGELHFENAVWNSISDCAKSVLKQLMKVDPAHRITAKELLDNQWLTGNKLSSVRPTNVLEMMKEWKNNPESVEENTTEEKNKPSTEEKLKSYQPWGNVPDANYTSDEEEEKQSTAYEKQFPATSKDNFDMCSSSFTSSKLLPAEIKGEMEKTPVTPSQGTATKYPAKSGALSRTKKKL
The EC50 is the concentration giving half of the maximal effect. Lower therefore signals higher potency in that assay. As for `Cc1nc[nH]c1C(=O)NN=Cc1c(Cl)cccc1Cl` [MLS001182271], the EC50 is > 120 µM.

As to `O=c1c(O)c(-c2cc(O)c(O)c(O)c2)oc2cc(O)cc(O)c12`, the EC50 was determined as 18 µM. This counts as double-digit micromolar.

`O=C1c2ccccc2-c2onc3ccc(NCCCn4ccnc4)c1c23` [SMR000044769] yielded an EC50 of 8.03 µM. The compound `COc1ccc(C(=O)ON=C(C)c2ccccc2)cc1` [SMR000159704] registered a 50% effective concentration (EC50) of 68.2 µM.

Regarding `N#C/C(=C/C=C/c1ccccc1)C(=O)Nc1ccccc1` [2-cyano-N,5-diphenyl-2,4-pentadienamide], the EC50 is > 120 µM.

With `Nc1c(O)ccc2c1C(=O)c1ccccc1C2=O` [1-amino-2-hydroxy-9,10-anthraquinone], the concentration giving a half-maximal response (EC50) came out at 34.7 µM. The same measure for `Cc1cccc(C(=N)NOC(=O)c2ccc3c(c2)OCO3)c1` [MLS000579340]: 37.3 µM. Compound `S=C(Nc1ccccc1)Nc1ccc2c[nH]nc2c1` [MLS000516600] showed a 50% effective concentration (EC50) of 19.5 µM. Regarding `c1ccc2c3c([nH]c2c1)-c1n[nH]cc1CC3` [3,4,16-triazatetracyclo[7.7.0.0^{2,6}.0^{10,15}]hexadeca-1(9),2,5,10,12,14-hexaene], the midpoint of the response, the EC50, lay at 61 µM. The result for `S=C(Nc1cccc(Cl)c1)Nc1ccc2cn[nH]c2c1` [SMR000261299] reads > 120 µM. The same measure for `Cc1cccc(N2CCN(CCCNC(=O)c3ccc(NC(=O)C4=CSCCO4)cc3)CC2C)c1` (stereo unspecified): 7.97 µM; for `COc1cc(-c2cc(=O)c3c(O)c(OC)c(OC)c(O)c3o2)ccc1O` [5,8-dihydroxy-2-(4-hydroxy-3-methoxy-phenyl)-6,7-dimethoxy-chromone]: 9.68 µM. As for `COc1ccc(-c2onc3ccc(C(=O)/C=C/N(C)C)cc23)cc1` [(E)-3-(dimethylamino)-1-[3-(4-methoxyphenyl)-2,1-benzoxazol-5-yl]-2-propen-1-one], the 50% effective concentration (EC50) is 5.29 µM. This EC50 is about 1.8-fold lower than that of the compound before. The result for `CCc1ncc(C=C2C(=O)Nc3ccccc32)[nH]1` [3-[(Z)-(2-ethyl-1H-imidazol-5-yl)methylidene]-1H-indol-2-one] reads 5.25 µM. The result for `O=C1c2ccccc2C(=O)C1c1ccncc1` [2-(1H-pyridin-4-ylidene)indane-1,3-quinone] reads 10.3 µM.

The compound `COC(=O)c1ccccc1NC(=O)N1CCN(C/C=C/c2ccccc2)CC1` yielded an EC50 of 8.73 µM. The compound `COc1cc(N=CC2C(=O)Nc3ccccc32)cc(OC)c1OC` (stereo unspecified) gave a concentration giving a half-maximal response (EC50) of 4.93 µM. Against the preceding compound, the EC50 is about 1.8-fold lower.

Regarding `CCn1cc(/C=C/C(=O)c2ccc(O)cc2)c(C)n1` [(E)-3-(1-ethyl-3-methyl-4-pyrazolyl)-1-(4-hydroxyphenyl)-2-propen-1-one], the 50% effective concentration (EC50) came to 9.79 µM. This EC50 lies about 2-fold higher than the previous one. With `c1cncc(Nc2nc(-c3cccnc3)cs2)c1` [SMR000077836], the response was half-maximal at 26.6 µM (EC50). The result for `Cc1cc(N2CCN(C)CC2)nc2ccc(NC(=O)c3ccc(Br)o3)cc12` [SMR000022431] reads 10.3 µM; that for `COc1cc(C=CC(=O)CC(=O)C=Cc2ccc(O)cc2)ccc1O` [demethoxycurcumin], 1.75 µM; that for `CN(C)c1cc2c(c(N(C)C)c1)C(=O)c1ccccc1C2=O` [1,3-bis(dimethylamino)-9,10-anthraquinone], 23.8 µM. The same measure for `CCN1C=CC(=C2C(=O)c3ccccc3C2=O)C=C1` [2-(1-ethyl-4-pyridinylidene)indene-1,3-dione]: 14 µM. The result for `CCn1c2ccc(C)cc2c2nc3cc(C(=O)O)ccc3nc21` [6-ethyl-9-methylindolo[2,3-b]quinoxaline-2-carboxylic acid] reads 17.9 µM; that for `O=C1Nc2ccccc2C1C=Nc1ccc2c(c1)OCO2` (stereo unspecified) [(3Z)-3-[(1,3-benzodioxol-5-ylamino)methylidene]-1H-indol-2-one], 11.3 µM; that for `Oc1ccc(Nc2nc(-c3ccccc3O)nc3ccccc23)cc1`, 2.43 µM.

For `COc1cc(C=C2SC(N)=NC2=O)ccc1O` [(5Z)-2-azanyl-5-[(3-methoxy-4-oxidanyl-phenyl)methylidene]-1,3-thiazol-4-one], a half-maximal response (EC50) required 0.936 µM. `O=NCc1c(Nc2ccccc2)nc2ccccn2c1=O` [(3Z)-3-[(hydroxyamino)methylene]-2-phenylimino-pyrido[1,2-a]pyrimidin-4-one]: the EC50 was determined as 6.22 µM. `O=C1NCCCc2c1oc1ccc(O)cc21` [7-hydroxy-2,3,4,5-tetrahydro-[1]benzofuro[2,3-c]azepin-1-one] displayed an EC50 of 3.71 µM. `CCCn1c(NC(=O)c2cccc(S(=O)(=O)N3CCCC3)c2)nc2ccccc21` [MLS000057540] returned an EC50 of 0.769 µM. In the case of `O=C1Nc2ccccc2C1=Cc1cnc[nH]1` [SMR000180717], the concentration giving a half-maximal response (EC50) amounted to 7.94 µM. With `O=C(Nc1ccccc1-c1nc2ccccc2[nH]c1=O)c1cccs1` [N-[2-(3-oxo-4H-quinoxalin-2-yl)phenyl]-2-thiophenecarboxamide], a half-maximal response (EC50) required 2.1 µM. The result for `COc1ccccc1NC(=O)Nc1ncccc1C` [MLS000072334] reads 7.93 µM. For `CN1CCCC1CCNc1ccc2sc3ccccc3c(=O)c2c1` (stereo unspecified) [2-[2-(1-methyl-2-pyrrolidinyl)ethylamino]-9-thioxanthenone], the 50% effective concentration (EC50) came to 16.6 µM.

The compound `C[C@H]1CCCC(=O)CCCC=Cc2cc(O)cc(O)c2C(=O)O1` [(11S)-11-methyl-15,17-bis(oxidanyl)-12-oxabicyclo[12.4.0]octadeca-1(18),2,14,16-tetraene-7,13-dione] returned an EC50 of 44.6 µM. In the case of `CCOc1ccc(-c2ccc(SC)nn2)cc1` [3-(4-ethoxyphenyl)-6-(methylthio)pyridazine], the EC50 is > 120 µM. The result for `CN(C)/C=C/C(=O)c1ccc2noc(-c3cccc(F)c3)c2c1` [(E)-3-(dimethylamino)-1-[3-(3-fluorophenyl)-2,1-benzoxazol-5-yl]-2-propen-1-one] reads 18.7 µM; that for `Cc1ccc(NC(=O)c2cccc(C(=O)Nc3ccc(C)cc3C(=O)O)c2)c(C(=O)O)c1` [The compound has not trivial name.], 21.8 µM. The same measure for `COc1cc(C=Nn2c(C3CCCCC3)n[nH]c2=S)ccc1O` [(4E)-4-[[(3-cyclohexyl-5-sulfanylidene-1H-1,2,4-triazol-4-yl)amino]methylidene]-2-methoxy-cyclohexa-2,5-dien-1-one]: 22 µM; for `O=C1NC(=O)/C(=C/c2ccc(O)cc2)S1` [SMR000324608]: 12.4 µM; for `Nc1ccc(N)c2c(O)c3ccccc3c(O)c12` [1,4-bis(azanyl)-2,3-dihydroanthracene-9,10-dione]: 23.8 µM. The result for `COc1ccc(/C=C/c2nc3ccccc3n2C)cc1` [MLS000719304] reads 26.1 µM; that for `COc1ccc(C(=O)NNC(=O)c2ccccn2)cc1`, 21.8 µM; that for `O=c1c2ccccc2oc2ccc(NCCCN3CCOCC3)cc12`, 3.82 µM. As to `CCc1ccc(NC(S)=Nc2ccc3c[nH]nc3c2)cc1` [SMR000261301], the response was half-maximal at 9.41 µM (EC50). The result for `CCSc1nc(N2CCOCC2)c2c(c1C#N)CCCC2` [3-(ethylthio)-1-(4-morpholinyl)-5,6,7,8-tetrahydroisoquinoline-4-carbonitrile] reads 8.86 µM; that for `N=c1c2c(-c3ccccc3)c(-c3ccccc3)oc2ncn1Cc1ccco1` [SMR000176070], > 120 µM.

Consider `CCOc1ccc(Nc2nc(N)c3ccccc3n2)cc1` [N2-(4-ethoxyphenyl)quinazoline-2,4-diamine;hydrochloride], for which the EC50 is > 120 µM. Regarding `CCn1c2ccccc2c(=O)c2ccccc21` [10-ethyl-9-acridinone], a half-maximal effect (EC50) was put at 16.7 µM. Consider `Cc1cc(O)ccc1NS(=O)(=O)c1ccc2c3c(cccc13)C(=O)N2` [N-(2-methyl-4-oxidanyl-phenyl)-2-oxidanylidene-1H-benzo[cd]indole-6-sulfonamide], for which it took 19.2 µM to reach a half-maximal effect (EC50). `CCN1CCN(c2cc(C)c3cc(NC(=O)c4ccc(Br)o4)ccc3n2)CC1` [5-bromo-N-[2-(4-ethylpiperazin-1-yl)-4-methylquinolin-6-yl]furan-2-carboxamide] showed an EC50 of 18.4 µM.

For the compound `O=C(c1ccc2c3n(nc2c1)-c1ccccc1CO3)N1CCCCC1` [5H-indazolo[2,3-a][3,1]benzoxazin-9-yl(piperidin-1-yl)methanone], the concentration for a half-maximal effect (EC50) was > 120 µM.

With `O=C(CSc1nc(N2CCCCC2)nc(N2CCCCC2)n1)c1ccccc1` [2-[[4,6-di(piperidin-1-yl)-1,3,5-triazin-2-yl]sulfanyl]-1-phenyl-ethanone], the concentration giving a half-maximal response (EC50) is > 120 µM. Compound `O=C1c2c(O)ccc(O)c2C(=O)c2c(NCCNCCO)ccc(NCCNCCO)c21` [SMR000058480] displayed an EC50 of 5.88 µM. With `COc1cc(C2c3sc(=O)[nH]c3Sc3c2c(O)n(-c2ccc(C)cc2)c3O)ccc1O` (stereo unspecified) [SMR000414898], the concentration for a half-maximal effect (EC50) is > 120 µM. `O=C(CCc1ccc(O)cc1)c1c(O)cc(O)cc1O` [3-(4-hydroxyphenyl)-1-(2,4,6-trihydroxyphenyl)propan-1-one] had a 50% effective concentration (EC50) of 21.4 µM.

With `O=C1N=C(NCc2ccccc2)SC1=Cc1ccc(O)cc1` [SMR000217101], the EC50 worked out at 2.11 µM. This EC50 is about 10-fold lower than that of the compound before. As for `O=C1c2ccccc2C(=O)C1c1ccccn1`, the EC50 amounted to 5.49 µM.

`Cc1cc(C(=O)O)ccc1N=Cc1c(O)ccc2ccccc12` [4-[(2-Hydroxy-naphthalen-1-ylmethylene)-amino]-3-methyl-benzoic acid] showed an EC50 of 22.7 µM.

With `COC(=O)c1cc(NC(=O)C2COc3ccccc3O2)cc(C(=O)OC)c1` (stereo unspecified) [dimethyl 5-(2,3-dihydro-1,4-benzodioxin-3-ylcarbonylamino)benzene-1,3-dicarboxylate], the EC50 is > 120 µM.

Compound `Cc1ccc(C(=O)O/N=C(\N)c2ccccn2)c(Cl)c1` [MLS001206211] yielded an EC50 of 32.2 µM. That is a double-digit micromolar value. Consider `CCCCCCCCCC[N+](C)(C)CC/C=C1/c2ccccc2Sc2ccc(Cl)cc21` [[(3Z)-3-(2-chloro-9-thioxanthenylidene)propyl]-decyl-dimethylammonium;bromide], for which the concentration giving a half-maximal response (EC50) was > 120 µM. The same measure for `CCN(CC)c1ccc(/C=C2/C(=O)c3ccc(C(=O)O)cc3C2=O)cc1` [(2Z)-2-[[4-(diethylamino)phenyl]methylidene]-1,3-dioxoindene-5-carboxylic acid]: 3.83 µM. In the case of `COC(=O)Nc1nnc(Cc2ccccc2)s1` [N-[5-(phenylmethyl)-1,3,4-thiadiazol-2-yl]carbamic acid methyl ester], the EC50 is > 120 µM. On to `CC(C)N=C(S)Nc1ccc2c[nH]nc2c1` [SMR000261130], for which the concentration for a half-maximal effect (EC50) was > 120 µM. The same measure for `COc1cc(C=CC(=O)CC(=O)C=Cc2ccc(O)c(OC)c2)ccc1O`: 0.71 µM.

The record behind these values is BindingDB's records for doi:10.7270/Q2B27SRF (Broad Institute, 2010).
